Values joined by “and” are separate entries in the source; they are usually repeats but may differ in a detail not shown here. Identical values can stand only once.
Experiments:
[1] = tested on: hESCs/hiPSCs; assay: Induction of NMPs from hPSCs in 2D culture (FGF2, CHIR99021); type: cell-based, human; settings: N2/B27 with FGF2 and CHIR99021, up to day 6
Protocol: Add 2 mL N2/B27 media containing 10ng of FGF2 and SuM of CHIR99021 (Wnt signaling agonist) to each well of the 6-well plate and return the plate to the incubator. Feed cells every other day with N2/B27 media for up to 6 days. Cells should appear as a monolayer with cells packed together tightly at the end of day 6 (FIG. 16A). This confluency is optimal for embryoid body (EB) formation in the next step.

[2] = tested on: mESC-derived NPCs; assay: Expansion culture: serial passaging of RA±BMP4 patterned EBs in CHIR or DMSO; type: cell-based, mouse
Protocol: For expansion cultures. EBs were dissociated in single cell suspension at day 6 by treating with 0.25% Trypsin, followed by trituration to break up the larger cell clumps. Cells were pelleted and passaged in N2/B27 medium containing either DMSO or 5 μM CHIR at 1:3 dilution. Media was changed at every third day during the expansion culture.
Finally, we assessed whether the mitogenic properties of Wnt signaling can be leveraged to expand the pool of mESC-derived NPCs. RA±BMP4 patterned EBs were serially passaged at 1:3 dilution […] in the presence of DMSO (control) or CHIR (FIG. 7A).
Embryonic stem cells are first directed to a day 4 neural precursor cell (NPC) state, and then Wnt signaling is continually switched on using CHIR, which starts the process of proliferation. The cells are then passaged every 6 days. with a 1:3 split. Control NPCs die almost immediately, while “expanded” cells keep dividing for as long as they have been passaged to date (three months). These NPCs can then be differentiated. Differentiation of the expanded cultures without any further signals yields dI3s and dI5s. A further pulse for two days with RA (day 3-5), produces dI4, dI5 and dI6. Pulsing them with RA+BMP4, yields dI1, dI2 and dW3.
Thus, a method of keeping dorsal progenitors (dPs) in a proliferative state for many passages (perhaps indefinitely) is provided. The proliferative state can be maintained without changing the fate potential of the dPs. mESCs are first patterned according to either the RA or RA+BMP4 protocol, up to day 6. After patterning, the dPs are then reintroduced to medium containing CHIR (Wnt agonist, that stimulates Wnt signaling). The CHIR-treated cultures can then serially expand 3-fold every 6 days (a passage), unlike control (DMSO-treated) cells, which start dying at passage 2 (FIG. 7). To date we have expanded dPs for 7-8 passages, i.e. a couple of months.

[3] = tested on: mESC-derived neurons; assay: Single-cell RNA sequencing of day 9 cultures, assignment of dI identities; type: cell-based, mouse; settings: scRNA-Seq
Protocol: Preparation of single cell suspension: Day 9 cultures from both protocol1 (RA) and protocol3 (RA+BMP4) were dissociated with 0.25% cold trypsin for 5 mins. Trypsin activity was stopped with the addition of trypsin inhibitor (Sigma-Aldrich) in 1:1 ratio. Cells were then pelleted by centrifugation at 1000RPM and resuspended in 1× PBS. The ratio of viable cells was determined using Trypan blue staining. Dead cells were removed using MACS dead cell removal kit (Miltenyi Biotec Inc.) by following the manufacturer's protocol. Eluted live cells were then suspended in 1× PBS containing 0.04% BSA solution (400 μg/ml) for the library preparation.
Library preparation, and sequencing: ~10,000 live cells/conditions were used to construct single-cell specific cDNA libraries using protocol described in 10× Genomics chromium single cell 3′ reagent kit (v3.1 Chemistry). Briefly, cells were partitioned into nanoliter-scale Gel-Beads-in-emulsion (GEM) using the 10× Chromium controller. Each GEM contains a unique barcode which is shared among the cDNA generated from a single cell. Cells were then lysed, and cDNA synthesis and feature barcoding were performed in the GEMs. The sequencing libraries were recovered using Magnetic separation and the quantity and quality of cDNA were assessed by Agilent 2100 expert High Sensitivity DNA Assay. cDNA samples were sequenced on 1 lane of NovaSeq 6000 S2 flow cell and reads were mapped to mouse mm10 genome using Cell Ranger v.3.0.2 to generate fasq files.
Filtering genes and cells: Seurat package v3.1.1 was used for the analysis. For each condition, genes expressing in less than 3 cells were removed and cells with >250 features were retained. PCA was used for dimension reduction (npcs=50) with top 3000 most variable genes. Raw count data were normalized using regularized negative binomial regression with SCT transformation. Cell clustering is done using Shared Nearest Neighbor (SNN) Graph method and cluster specific markers were identified by Wilcox Rank Sum test.
Each cell cluster was annotated by a combination of the following methods 1) the expression of known canonical cell-type markers 2) Gene Set Enrichment Analysis (GSEA) of cluster specific markers determined by FindMarkers function in Seurat.
Reclustering of neuronal clusters: From the entire single-cell dataset, neuronal cells were first identified by the expression of pan-neuronal markers-Tubb3 and Elavl1/2. Roughly 30% cells express these markers in both protocol 1 and protocol 3 and were thus annotated as the mature neurons. The neuronal populations were then extracted using the Seurat package in R, by clustering the cells expressing Tubb3 >2 (median normalized log expression levels) using the Shared Nearest Neighbor (SNN) Graph method. […] Clusters were visualized with Uniform Manifold Approximation Projection (UMAP) method and the unique cluster-specific markers were identified using FindMarker function in Seurat.
To assess whether protocols 1 and 3 direct distinct classes of dIs, we obtained single-cell transcriptomes from 9,704 cells using protocol 1 and 13,121 cells using protocol 3, taken at day 9 of the differentiation procedure (FIG. 2A). We performed Louvain clustering followed by Uniform Manifold Approximation and Projection (UMAP) plots, to visualize groups of transcriptionally distinct cell types (Becht et al., 2018). This pipeline identified 21 dusters of cells in both protocol 1 (FIG. 2C) and protocol 3 (FIG. 2D). In both conditions, ~30% of cells identify as being stressed; they cluster separately and display <2000 RNA counts (FIGS. 2C, 2D, 9A, 9B). ~2-4% cells are pluripotent stem cells, marked by Sox2, Pou5f1 (Oct4) and Nanog expression, while 5-8% cells are non-neural, either of mesodermal or cardiac neural crest identity, expressing Twist1, Runx2, and Hand2 (Han et al., 2021; Soldatov et al., 2019; Vincentz et al., 2013) (FIGS. 2C, 2D, 9A, 9B). […]

Structure (SMILES) | growth rate of the hPSC/NMP monolayer [1] | EB size over three consecutive passages ([2]; CHIR vs DMSO, RA and RA+BMP4 patterned EBs) | Sox2+ NPC identity after passaging ([2]; CHIR-treated EBs) | serial expansion of CHIR-treated cultures every 6 days (a passage) ([2]; Example 2) [fold] | increase in the number of EBs after each passage compared to DMSO-treated EBs ([2]; RA- and RA+BMP4-treated EBs) [fold] | increase in the number of CHIR-treated EBs by the third passage ([2]; passaged 1:3 every 7 days) | Tubb3+ (Tuj1+) neurons of unknown neural identity (no dI specific markers) [3] | Tubb3+ (Tuj1+) neurons that are dI1 [3] | Tubb3+ (Tuj1+) neurons that are dI2 [3] [%] | Tubb3+ (Tuj1+) neurons that are dI4 [3] | Tubb3+ (Tuj1+) neurons that are dI5 [3] | Tubb3+ (Tuj1+) neurons that are dI6 [3]
Cc1c[nH]c(-c2cnc(NCCNc3ccc(C#N)cn3)nc2-c2ccc(Cl)cc2Cl)n1 [CHIR, CHIR99021] | induces a higher growth rate in the monolayer | decrease in EB size | remained Sox2^+ after multiple passages | 3 | > 6 | 3- to 6 fold |  |  |  |  |  | 
CC1=C(/C=C/C(C)=C/C=C/C(C)=C/C(=O)O)C(C)(C)CCC1 [RA, retinoic acid] |  |  |  |  |  |  | 8.5% and ~ 8.5% | 5% and 5.2% | 5 | ~ 33% and 33% | 40.5% and 40.6% | 8% and 7.6%
